Reference: article PMC7894038 (Antiviral research, 2020)
Where two headings read alike, the source gives them in different places.

Target: eNP-CTD (Ebola virus nucleoprotein C-terminal domain, residues 641-739) (Zaire ebolavirus, UniProt P18272)
Assay: biochemical
Format: binding

Sequence of eNP-CTD (Ebola virus nucleoprotein C-terminal domain, residues 641-739) (P18272 641-739 limits assumed): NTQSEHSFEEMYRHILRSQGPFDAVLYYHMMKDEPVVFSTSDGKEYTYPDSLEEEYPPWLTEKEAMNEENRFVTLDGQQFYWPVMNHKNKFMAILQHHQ

How did the “Site 1 ligand efficiency” value turn out when `CNCC1CCN(Cc2cccnc2)CC1` [CC69846, N-methyl-[1-(pyrid-3-ylmethyl)piperid-4-yl]methylamine] was run?
Its value is 1.6 ± 0.2 (0.24).

What about the “Site 3 ligand efficiency” value of the same molecule?
Its value is 1.9 ± 0.3 (0.24).

And the “Site 4 ligand efficiency” value?
The value was 4.9 ± 1.8 (0.20).

What about the Kd (Site 1 Kd ± Std. Error) of the same molecule?
Its Kd is 1600 µM.

And the Kd (Site 3 Kd ± Std. Error)?
The Kd was greater than 1630 µM.

And the Kd (Site 4 Kd ± Std. Error)?
Its Kd is greater than 1630 µM.

What about the “Site 2 Kd ± Std. Error” value (pH 7) of the same molecule?
The value was “did not bind”.

What about the “Site 4 Kd ± Std. Error” value (pH 7) of the same molecule?
The value was “lower affinity”.

And the Kd (read-out: Site 2 Kd ± Std. Error, pH 7)?
Its Kd is greater than 7000 µM.
